Measurements: PMC2854646 (Oncogene, 2008)

Biological target: T1, E1 (ubiquitin-activating enzyme) (Homo sapiens, UniProt P22314)
T1 sequence (P22314 2-1058): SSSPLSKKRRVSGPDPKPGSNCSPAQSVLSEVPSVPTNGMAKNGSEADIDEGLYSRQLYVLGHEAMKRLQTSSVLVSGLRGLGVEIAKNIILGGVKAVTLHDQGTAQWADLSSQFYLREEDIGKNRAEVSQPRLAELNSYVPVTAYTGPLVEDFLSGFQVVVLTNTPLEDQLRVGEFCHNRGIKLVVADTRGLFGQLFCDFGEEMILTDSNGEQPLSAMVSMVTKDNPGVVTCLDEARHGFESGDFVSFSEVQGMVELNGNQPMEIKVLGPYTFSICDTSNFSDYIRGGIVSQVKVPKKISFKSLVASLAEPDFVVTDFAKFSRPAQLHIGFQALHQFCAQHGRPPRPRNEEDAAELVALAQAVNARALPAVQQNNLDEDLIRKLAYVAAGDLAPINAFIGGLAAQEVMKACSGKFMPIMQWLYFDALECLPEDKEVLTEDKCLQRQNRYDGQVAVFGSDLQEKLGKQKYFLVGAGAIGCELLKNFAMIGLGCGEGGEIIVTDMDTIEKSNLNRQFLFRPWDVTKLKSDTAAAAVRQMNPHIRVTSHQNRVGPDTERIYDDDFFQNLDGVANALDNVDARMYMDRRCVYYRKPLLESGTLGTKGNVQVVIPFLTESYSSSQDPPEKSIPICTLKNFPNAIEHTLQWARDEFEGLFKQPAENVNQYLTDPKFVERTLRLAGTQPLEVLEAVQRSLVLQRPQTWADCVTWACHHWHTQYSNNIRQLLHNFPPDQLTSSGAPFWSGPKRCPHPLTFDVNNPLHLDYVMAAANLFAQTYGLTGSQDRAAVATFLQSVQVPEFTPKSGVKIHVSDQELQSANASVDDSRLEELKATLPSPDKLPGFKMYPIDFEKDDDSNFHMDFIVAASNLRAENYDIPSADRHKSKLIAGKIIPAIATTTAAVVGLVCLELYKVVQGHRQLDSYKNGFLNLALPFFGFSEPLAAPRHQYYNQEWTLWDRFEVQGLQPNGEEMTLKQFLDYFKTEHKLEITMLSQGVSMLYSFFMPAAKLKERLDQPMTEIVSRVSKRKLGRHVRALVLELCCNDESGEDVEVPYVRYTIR
Assay: ubiquitin~E1 thioester immunoblot
Format: cell-based

Structure (SMILES): CCOC(=O)N1CCN(/[N+]([O-])=N/Oc2ccc([N+](=O)[O-])cc2[N+](=O)[O-])CC1 [JS-K, O^2-(2,4-dinitrophenyl) 1-[(4-ethoxycarbonyl)piperazin-1-yl]diazen-1-ium-1,2-diolate]
- IC50: ~2 µM
